pIC50: −log10 of the molar value. “And” between values parts separate entries of the source, which are not always exact repeats. Identical values can stand only once. Like-named read-outs stand apart in the source and are kept apart here.
Legend:
[1] = Determination of urinary and fecal excretion in rats; assay type: in vivo; conditions: 5 mg/kg; for Fecal excretion, Amount / Fecal excretion, Fraction Excreted (unchanged) / Urinary excretion, Amount / Urinary excretion, Fraction Excreted (unchanged): 0–48 h
Method: Supinoxin was administered to male SD rats (n = 3–4) at a dose of 5 mg/kg either intravenously (through the tail vein) or by oral gavage, following which rats were kept in metabolic cages and urine and feces samples were collected over the following time intervals: 0–2, 2–4, 4–6, 6–10, 10–24, 24–36, and 36–48 h for urine; 0–10, 10–24, 24–36, and 36–48 h for feces.
The metabolic cages were rinsed with distilled water, and residues were added to the urine samples at 48 h. To extract the supinoxin present in the feces, samples were homogenized with a blender mixer and shaken vigorously for 4 h with 50% methanol.
The amount of drug excreted in urine or feces (Ae) and the dose fractions excreted unchanged in urine or feces (fe) were calculated as:Ae = Cobs, urine or feces × Vurine or feces(2) fe = Ae/Dose(3)
The urinary and fecal clearances of supinoxin were calculated as:CLurine or feces = Ae, urine or feces/AUC(4)

[2] = molecular target: T1, CYP1A2 (Homo sapiens, UniProt P05177); test: CYP inhibition, Vivid CYP450 screening kit; assay type: in vitro ADME
T1 construct: purchased Thermo Fisher Scientific
T1 sequence (P05177 1-516): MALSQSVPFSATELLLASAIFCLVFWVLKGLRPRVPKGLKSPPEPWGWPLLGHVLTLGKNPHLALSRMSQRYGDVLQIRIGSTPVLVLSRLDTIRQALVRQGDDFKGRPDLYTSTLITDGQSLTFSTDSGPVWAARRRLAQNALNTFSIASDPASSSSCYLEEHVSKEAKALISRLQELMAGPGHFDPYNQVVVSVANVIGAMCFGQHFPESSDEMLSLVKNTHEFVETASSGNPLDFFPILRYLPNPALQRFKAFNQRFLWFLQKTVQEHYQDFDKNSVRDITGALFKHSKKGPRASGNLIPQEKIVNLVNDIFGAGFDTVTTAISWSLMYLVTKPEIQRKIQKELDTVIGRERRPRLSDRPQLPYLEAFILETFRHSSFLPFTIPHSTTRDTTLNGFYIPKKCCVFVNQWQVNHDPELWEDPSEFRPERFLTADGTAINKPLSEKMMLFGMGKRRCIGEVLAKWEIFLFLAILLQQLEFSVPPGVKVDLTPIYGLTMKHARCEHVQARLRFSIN
Method: (§1) CYP inhibition by supinoxin was studied using Vivid® CYP450 screening kits (Thermo Fisher Scientific, San Jose, CA, USA) following the manufacturer’s instructions. Briefly, Vivid® substrates were dissolved in acetonitrile yielding a stock solution of 2 mM. Fluorescent assays were conducted at room temperature using Costar 96-well black plates (#3915; Corning Costar, Acton, MA, USA). Supinoxin stock solution was diluted in reaction buffer to yield a 2.5X concentration solution (final concentration of 10 µM); aliquots (40 μL) of the solution were added to the wells. Subsequently, aliquots (50 μL) of reaction mixture consisting of P450 Baculosomes® Reagent and the NADPH regeneration system were also added to the wells and preincubated for 10 min, at room temperature, after which 10 μL of 1 mM NADP^+ and Vivid® substrate mixture were added. After a 30-min incubation, fluorescence was detected in end-point mode using a Varioscan™ Flash multimode reader (Thermo Fisher Scientific, San Jose, CA, USA). Background fluorescence was obtained from wells not containing CYP isozymes and was withdrawn before further reaction. The excitation and emission wavelengths of 485 nm/530 nm for Vivid® Green substrates, and 409 nm/460 nm for Vivid® Blue substrates were used. The inhibition percentage of the compound was determined in comparison to the vehicle (i.e., DMSO)-treated control wells. For isozymes with > 50% inhibition at 10 μM, we determined the concentration-dependent inhibition of supinoxin to obtain the IC50 value at concentrations ranging from 0.59 to 10 μM.

[3] = molecular target: T2, CYP2C19 (Homo sapiens, UniProt P33261); test: CYP inhibition, Vivid CYP450 screening kit; assay type: in vitro ADME
T2 construct: purchased Thermo Fisher Scientific
Method: as §1

[4] = molecular target: T3, CYP2C9 (Homo sapiens, UniProt P11712); test: CYP inhibition, Vivid CYP450 screening kit; assay type: in vitro ADME
T3 construct: purchased Thermo Fisher Scientific
Method: as §1

[5] = molecular target: T4, CYP2D6 (Homo sapiens, UniProt P10635); test: CYP inhibition, Vivid CYP450 screening kit; assay type: in vitro ADME
T4 construct: purchased Thermo Fisher Scientific
Method: as §1

[6] = molecular target: T5, CYP3A4 (Homo sapiens, UniProt P08684); test: CYP inhibition, Vivid CYP450 screening kit; assay type: in vitro ADME
T5 construct: purchased Thermo Fisher Scientific
Method: as §1

[7] = cited from earlier work; for Plasma concentration, Mean: fasted male SD rats, intravenous 1 mg/kg, ref 15 (Table 1 footnote)
[8] = tested on: advanced triple-negative breast cancer; design: method as in doi:10.1200/JCO.2018.36.15_suppl.1097; conditions: cited from earlier work
[9] = rats, intravenous, 1 mg/kg, Jeong, J.-W. et al., 2017

T4 sequence (P10635 whole entry): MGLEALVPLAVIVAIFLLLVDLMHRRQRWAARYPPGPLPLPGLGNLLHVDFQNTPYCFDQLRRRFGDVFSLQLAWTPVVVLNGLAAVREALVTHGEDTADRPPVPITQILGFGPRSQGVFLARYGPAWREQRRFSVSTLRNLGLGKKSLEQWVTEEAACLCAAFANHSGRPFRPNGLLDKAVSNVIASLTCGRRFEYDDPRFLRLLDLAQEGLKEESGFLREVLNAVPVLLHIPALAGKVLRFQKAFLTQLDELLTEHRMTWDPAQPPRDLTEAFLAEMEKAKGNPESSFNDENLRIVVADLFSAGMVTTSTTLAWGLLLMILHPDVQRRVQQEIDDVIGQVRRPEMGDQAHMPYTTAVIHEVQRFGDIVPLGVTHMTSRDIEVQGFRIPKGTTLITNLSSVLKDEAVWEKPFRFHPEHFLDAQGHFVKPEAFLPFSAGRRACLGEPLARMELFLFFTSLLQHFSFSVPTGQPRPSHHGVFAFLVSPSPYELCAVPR
T2 sequence (P33261 whole entry): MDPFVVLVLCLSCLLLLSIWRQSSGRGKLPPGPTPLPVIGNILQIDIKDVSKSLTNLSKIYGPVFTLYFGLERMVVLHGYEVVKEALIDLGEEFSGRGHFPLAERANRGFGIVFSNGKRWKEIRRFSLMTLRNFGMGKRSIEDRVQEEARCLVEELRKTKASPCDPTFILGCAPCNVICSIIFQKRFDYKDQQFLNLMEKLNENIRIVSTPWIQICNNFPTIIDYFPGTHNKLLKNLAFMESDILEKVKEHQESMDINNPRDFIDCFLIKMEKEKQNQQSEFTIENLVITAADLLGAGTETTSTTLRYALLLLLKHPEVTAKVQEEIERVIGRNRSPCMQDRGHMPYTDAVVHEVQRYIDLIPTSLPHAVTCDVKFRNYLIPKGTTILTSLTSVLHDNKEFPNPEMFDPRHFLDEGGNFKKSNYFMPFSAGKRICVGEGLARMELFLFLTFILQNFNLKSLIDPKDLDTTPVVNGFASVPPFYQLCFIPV
T5 sequence (P08684 whole entry): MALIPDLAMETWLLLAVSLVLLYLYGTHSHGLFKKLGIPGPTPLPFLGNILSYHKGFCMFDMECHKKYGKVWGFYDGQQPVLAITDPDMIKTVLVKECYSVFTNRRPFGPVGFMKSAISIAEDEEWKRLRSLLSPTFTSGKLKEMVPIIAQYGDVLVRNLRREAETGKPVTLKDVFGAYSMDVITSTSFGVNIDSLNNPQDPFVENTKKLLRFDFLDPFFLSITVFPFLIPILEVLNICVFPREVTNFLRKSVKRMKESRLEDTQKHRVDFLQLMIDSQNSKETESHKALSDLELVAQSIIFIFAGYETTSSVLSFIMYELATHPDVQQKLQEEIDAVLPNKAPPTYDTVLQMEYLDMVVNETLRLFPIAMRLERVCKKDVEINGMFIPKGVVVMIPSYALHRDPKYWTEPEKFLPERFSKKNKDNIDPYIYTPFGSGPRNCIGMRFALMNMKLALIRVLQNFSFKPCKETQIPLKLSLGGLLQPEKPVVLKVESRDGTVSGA
T3 sequence (P11712 whole entry): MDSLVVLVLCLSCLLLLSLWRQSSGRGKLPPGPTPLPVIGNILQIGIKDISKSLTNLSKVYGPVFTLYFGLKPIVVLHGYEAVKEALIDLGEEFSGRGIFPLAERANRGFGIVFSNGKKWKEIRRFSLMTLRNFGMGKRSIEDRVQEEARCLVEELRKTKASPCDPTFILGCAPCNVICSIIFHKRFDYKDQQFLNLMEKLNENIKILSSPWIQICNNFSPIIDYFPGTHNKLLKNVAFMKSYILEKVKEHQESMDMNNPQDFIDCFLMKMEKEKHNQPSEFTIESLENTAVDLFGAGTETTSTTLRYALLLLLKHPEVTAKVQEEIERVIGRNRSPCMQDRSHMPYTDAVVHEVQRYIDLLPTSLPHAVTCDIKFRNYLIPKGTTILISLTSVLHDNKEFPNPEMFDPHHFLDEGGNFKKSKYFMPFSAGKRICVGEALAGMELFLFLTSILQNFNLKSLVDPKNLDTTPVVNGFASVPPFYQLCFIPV

- Fecal excretion, Amount ([1]; IV): 142 ± 21.6 µg
- Fecal excretion, Fraction Excreted (unchanged) ([1]; IV): 16.5% and 16.5 ± 2.82%
- Urinary excretion, Amount ([1]; IV): 0.27 ± 0.06 µg
- Urinary excretion, Fraction Excreted (unchanged) ([1]; IV): 0.03% and 0.03 ± 0.01%
- Fecal excretion, Amount ([1]; PO): 412 ± 209 µg
- Fecal excretion, Fraction Excreted (unchanged) ([1]; PO): 46.8% and 46.8 ± 24.5%
- Urinary excretion, Amount ([1]; PO): 0.06 ± 0.04 µg
- Urinary excretion, Fraction Excreted (unchanged) ([1]; PO): 0.01% and 0.01 ± 0.01%
- dose excreted ([1]; male, Sprague-Dawley (SD), rat, urine, both intravenous and oral administration, read-out: total urinary recovery of unchanged supinoxin): < 0.1%
- pIC50 ([2]; human recombinant CYP1A2): < 5.00
- inhibition at 30 min, 10 µM ([2]; recombinant human CYP1A2 (P450 Baculosomes), probe Vivid substrate, human recombinant CYP1A2, 10 µM, read-out: inhibition compared to the vehicle control): 5.9%
- pIC50 ([3]; human recombinant CYP2C19): < 5.00
- inhibition at 30 min, 10 µM ([3]; recombinant human CYP2C19 (P450 Baculosomes), probe Vivid substrate, human recombinant CYP2C19, 10 µM, read-out: inhibition compared to the vehicle control): 35.7%
- pIC50 ([4]; human recombinant CYP2C9): < 5.00
- inhibition at 30 min, 10 µM ([4]; recombinant human CYP2C9 (P450 Baculosomes), probe Vivid substrate, human recombinant CYP2C9, 10 µM, read-out: inhibition compared to the vehicle control): 16.2%
- pIC50 ([5]; human recombinant CYP2D6): < 5.00
- inhibition at 30 min, 10 µM ([5]; recombinant human CYP2D6 (P450 Baculosomes), probe Vivid substrate, human recombinant CYP2D6, 10 µM, read-out: inhibition compared to the vehicle control): < 0.01%
- pIC50 ([6]; human recombinant CYP3A4, 0.59 to 10 μM): 5.33
- inhibition at 30 min, 10 µM ([6]; recombinant human CYP3A4 (P450 Baculosomes), probe Vivid substrate, human recombinant CYP3A4, 10 µM): > 50%
SMILES: COc1cc(OC)cc(N2CCN(C(=O)Nc3nc4cc(F)ccc4nc3OC)CC2)c1 [supinoxin, 1-(3,5-Dimethoxyphenyl)-4-[(6-Fluoro-2-Methoxyquinoxalin-3-yl) Aminocarbonyl] Piperazine]
- Plasma concentration, Mean ([7]; 0.083 h): 860.2 ng/mL
- Plasma concentration, Mean ([7]; 0.25 h): 682.2 ng/mL
- Plasma concentration, Mean ([7]; 0.5 h): 501.6 ng/mL
- Plasma concentration, Mean ([7]; 1 h): 292.4 ng/mL
- Plasma concentration, Mean ([7]; 3 h): 194.2 ng/mL
- Plasma concentration, Mean ([7]; 7 h): 52.3 ng/mL
- Plasma concentration, Mean ([7]; 10 h): 20.8 ng/mL
- Plasma concentration, Mean ([7]; 24 h, BQL treated as 0): 0.5 ng/mL
- AUCinf [7, 9]: 1780 ± 300 ng·h/mL
- AUClast [7, 9]: 1750 ± 320 ng·h/mL
- T1/2 [7, 9]: 2.64 ± 0.39 h
- Vss [7, 9]: 2.04 ± 0.316 L/kg
- patients with stable disease ([8]; after two cycles of therapy): five of the 11 patients
- safety and tolerability of the suggested dose [8]: safe and well tolerated
- tumor reduction ([8]; one subject, after two cycles of therapy): 18.2%
